# Source: US12030936B2, “Modulating the effects of gamma-c-cytokine signaling for the treatment of alopecia and alopecia associated disorders” (BIONIZ THERAPEUTICS, LLC, priority 2019, dated 2024)
# Experiments:
# IL-15 = assay: PT-18β cell proliferation assay (WST-1), IL-15; format: cell-based, murine; settings: PT-18β cells, 1 nM cytokine, BNZ-γ as 1:20 or 1:60 dilution of HEK293T supernatant, 2 days
# Excerpt: (§1) For each of the six γc-cytokines, indicator cell lines: NK92, a human NK cell line NK92 available by American Type Culture Collection (ATCC) (catalog #CRL-2407), CTLL-2, a murine CD8 T cells line available from ATCC, and PT-18, a murine mast cell line and its subclone PT-18β, is transfected with human IL-2Rβ gene to make the cells responsive to IL-2 and IL-15 (Tagaya et al., 1996, EMBO J. 15:4928-39), and is used to quantitatively determine the γc-cytokine's growth-promoting activity (See Current protocols in Immunology from Wiley and Sons for a methodological reference).
# (§2) Once the appropriate doses of the cytokine that yield the 50% and 95% maximum response from the indicator cell line is determined, various concentrations (ranging from 1 pM to 10 μM) of the purified or synthesized custom derivative peptide is added to each well containing the cytokine and indicator cells. The reduction in light absorbance at 450 nm is used as an indicator of inhibition of cytokine-stimulated cellular proliferation. Typically, the cells are stimulated by the cytokines such that the absorbance of the well containing indicator cell line and the cytokine is between 2.0 and 3.0, which is reduced to a range of 0.1 to 0.5 by the addition of inhibitory peptides. […]
# (§3) The growth-responses of the cells were determined 2 days after the introduction of BNZ-γ peptide and the cytokine using the WST-1 assay. […]
# IL-9 = assay: PT-18β cell proliferation assay (WST-1), IL-9; format: cell-based, murine; settings: PT-18β cells, 1 nM cytokine, BNZ-γ as 1:20 or 1:60 dilution of HEK293T supernatant, 2 days
# Excerpt: as §1, §2, §3
# IL-4 = assay: PT-18β cell proliferation assay (WST-1), IL-4; format: cell-based, murine; settings: PT-18β cells, 1 nM cytokine, BNZ-γ as 1:20 or 1:60 dilution of HEK293T supernatant, 2 days
# Excerpt: as §1, §2, §3
# humanized NSG mice [1] = assay: Immunohistochemistry of humanized NSG mouse skin tissue for human CD8 T cells; format: in vivo; settings: 7-weeks post-transplant with vs without BNZ-γ treatment
# Experimental: In order to characterize the nature of immune attack in the skin tissue and around the hair follicles, immunohistochemistry studies were conducted of the skin tissue of humanized NSG mice 3-weeks (pre-BNZ-γ) and 7-weeks (with or without BNZ-γ treatment) after transplantation of 2 million huPBMCs. The tissue was fixed for 24 hours in 4% formalin (Sigma) and then moved to 70% ethanol for at least 24 hours before being processed. Tissue was then embedded in paraffin following dehydration for two washes of two hours each in 70%, 90%, and 100% ethanol, then cleared in xylene twice for two hours each, and infiltrated with melted paraplast plus at 60 C two times for two hours. Paraffin embedded tissues were stored at room temperature prior to sectioning and staining. An anti-human CD8 antibody (BioCare Medical CRM 311C) or isotype control was used for staining of the tissues based on the standard procedure for IHC.
# STAT5 = assay: IL-15-stimulated tyrosine phosphorylation of STAT5 in PT-18β cells (anti-phospho-STAT5 immunoblot); format: cell-based, murine; settings: PT-18β cells stimulated by IL-15, presence vs absence of BNZ-γ peptide
# Excerpt: In addition to stimulating cellular proliferation, binding of the γc-cytokines to their receptors causes a diverse array of intracellular events. (Rochman et al. 2009 Nat. Rev. Immunol. 9:480-90, Pesu et al. 2005 Immunol. Rev. 203:127-142.) Immediately after the cytokine binds to its receptor, a tyrosine kinase called Jak3 (Janus-kinase 3) is recruited to the receptor at the plasma membrane. This kinase phosphorylates the tyrosine residues of multiple proteins including the γc-subunit, STAT5 (Signal Transducer and Activator of Transcription 5) and subunits of the PI3 (Phosphatidylinositol 3) kinase. Among these, the phosphorylation of STAT5 has been implicated in many studies as being linked to the proliferation of cells initiated by the γc-cytokine. (Reviewed in Hennighausen and Robinson, 2008 Genes Dev. 22:711-21.) In accordance with these published data, whether or not the BNZ-γ peptide inhibits the tyrosine phosphorylation of STAT5 molecule in PT-18β cells stimulated by IL-15 was examined (results shown in FIG. 4).
# PT-18β cells were stimulated by IL-15 in the presence or absence of BNZ-γ peptide. Cytoplasmic proteins were extracted from the cells according to a conventional method as described in Tagaya et al. 1996 EMBO J. 15:4928-39. […]
# IL-3 = assay: PT-18β cell proliferation assay (WST-1), IL-3 as non-γc-cytokine negative control; format: cell-based, murine; settings: PT-18β cells, 1 nM cytokine, BNZ-γ as 1:20 or 1:60 dilution of HEK293T supernatant, 2 days
# Excerpt: as §1, §2, §3
# humanized NSG mice [2] = system: humanized NSG mice
# Experimental: In this experiment, NSG mice were transplanted with 2 million huPBMCs on study day 0, with therapeutic treatment beginning 35-days post-transplant. Mice were treated twice weekly with IV injections of PBS control (n=5), BNZ-γ at 2 mg/kg (n=5), anti-IL-2 antibody at 5 mg/kg (n=3), anti-IL-15 antibody at 5 mg/kg (n=3), or combination anti-IL-2 and anti-IL-15 antibody each at 5 mg/kg (n=3) starting on day 35 for a treatment duration of 4 weeks.
# Levels of IL-6 and IFNγ were also measured in this experiment. […] Cytokine levels were determined using sera collected on day 50, except for one animal in the anti-IL-2 antibody treatment group (collected on day 45), one mouse in the PBS control untreated group (collected on day 45), and two mice from the PBS control untreated group (collected on day 40) to ensure a blood sample was collected before each became fatally ill.
# [3] = sera collected on day 50 (some earlier), vs PBS control
substance,measurement,setting,value
I-K-E-F-L-Q-R-F-I-H-I-V-Q-S-I-I-N-T-S (IKEFLQRFIHIVQSIINTS) [BNZ-γ],growth-promoting activity of IL-15,IL-15,significantly (p<0.01 Student's T test) reduced
same,growth-promoting activity of IL-9,IL-9,significantly (p<0.01 Student's T test) reduced
same,cellular proliferation stimulated by IL-4,IL-4,not affected
same,number of infiltrated human CD8 T cells in skin tissue,humanized NSG mice [1],significant reduction in the number of infiltrated CD8 cells
same,tyrosine phosphorylation of STAT5,STAT5,markedly reduced
same,growth-promoting activity of IL-3,IL-3,not inhibited
same,survival of the BNZ-γ group relative to combination antibody treatment,"humanized NSG mice [2]; BNZ-γ 2 mg/kg IV twice weekly, 4 weeks from day 35, the words are printed of the combination, BNZ-γ being the more effective (p=0.001)",less effective than BNZ-γ
same,regrowth of hair,"humanized NSG mice [2]; approximately two weeks after treatment was completed (~day 63), 4-week treatment from day 35",greatest degree of hair regrowth of all 4 treatment groups
same,level of IFNγ in sera,humanized NSG mice [2]; [3],most effective
same,level of IL-6 in sera,humanized NSG mice [2]; [3],most effective
